Experiments:
Format in all cases: biochemical
human ME3 enzyme = molecular target: T1, human ME3 enzyme (Homo sapiens, UniProt Q16798); assay: ME3 inhibition assay (diaphorase/resazurin coupled fluorescence); conditions: 10 μM compound concentration; read-out: Malic Enzyme 3 % inhibition (10 μM)
T1 sequence (Q16798 1-604): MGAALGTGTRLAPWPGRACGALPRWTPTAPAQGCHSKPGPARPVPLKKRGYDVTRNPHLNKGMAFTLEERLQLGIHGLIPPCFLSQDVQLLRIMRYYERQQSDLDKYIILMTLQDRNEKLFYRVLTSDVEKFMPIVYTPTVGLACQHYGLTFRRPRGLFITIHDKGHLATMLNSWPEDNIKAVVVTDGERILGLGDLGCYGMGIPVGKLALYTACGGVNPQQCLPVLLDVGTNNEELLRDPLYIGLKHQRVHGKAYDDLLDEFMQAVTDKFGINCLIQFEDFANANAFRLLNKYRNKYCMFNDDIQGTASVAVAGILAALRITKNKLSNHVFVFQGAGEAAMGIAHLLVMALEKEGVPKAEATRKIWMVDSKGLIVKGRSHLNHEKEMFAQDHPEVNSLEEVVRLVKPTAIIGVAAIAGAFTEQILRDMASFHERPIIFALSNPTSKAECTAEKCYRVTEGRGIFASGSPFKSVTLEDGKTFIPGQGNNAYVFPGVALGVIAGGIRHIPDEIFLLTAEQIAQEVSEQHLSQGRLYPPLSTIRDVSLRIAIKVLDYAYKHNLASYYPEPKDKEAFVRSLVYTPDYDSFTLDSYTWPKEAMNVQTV
Procedure, shortened: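 Coupled read-out: NADPH made by human ME3 (20 nM stock) drives diaphorase conversion of resazurin (50 μM) to resorufin; buffer 50 mM Tris-HCl pH 7.5, 10 mM MnCl2, 3 mM L-malate.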

human ME2 enzyme = human ME2 enzyme (Homo sapiens, UniProt P23368); assay: ME2 inhibition assay (diaphorase/resazurin coupled fluorescence); conditions: 10 μM compound concentration; read-out: Malic Enzyme 2 % inhibition (10 μM)
Procedure, shortened: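 Human ME2 (10 μL of 60 nM) was preincubated 5 min at room temperature with compound (10 μM) in 50 mM Tris-HCl pH 7.5, 10 mM MnCl2, 7 mM L-malate, 50 μM resazurin and 0.025 mg/ml diaphorase. The reaction was started with 10 μL of 2 mM β-NAD+ and run 2 hours at room temperature. Resorufin fluorescence (ex 540/em 600 nm) was normalized to enzyme-only (100%) and no-enzyme (0%) controls as % activity.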

human ME1 enzyme = molecular target: T2, human ME1 enzyme (Homo sapiens, UniProt P48163); assay: ME1 inhibition assay (diaphorase/resazurin coupled fluorescence); conditions: 10 μM compound concentration; read-out: Malic Enzyme 1 % inhibition (10 μM)
T2 sequence (P48163 1-572): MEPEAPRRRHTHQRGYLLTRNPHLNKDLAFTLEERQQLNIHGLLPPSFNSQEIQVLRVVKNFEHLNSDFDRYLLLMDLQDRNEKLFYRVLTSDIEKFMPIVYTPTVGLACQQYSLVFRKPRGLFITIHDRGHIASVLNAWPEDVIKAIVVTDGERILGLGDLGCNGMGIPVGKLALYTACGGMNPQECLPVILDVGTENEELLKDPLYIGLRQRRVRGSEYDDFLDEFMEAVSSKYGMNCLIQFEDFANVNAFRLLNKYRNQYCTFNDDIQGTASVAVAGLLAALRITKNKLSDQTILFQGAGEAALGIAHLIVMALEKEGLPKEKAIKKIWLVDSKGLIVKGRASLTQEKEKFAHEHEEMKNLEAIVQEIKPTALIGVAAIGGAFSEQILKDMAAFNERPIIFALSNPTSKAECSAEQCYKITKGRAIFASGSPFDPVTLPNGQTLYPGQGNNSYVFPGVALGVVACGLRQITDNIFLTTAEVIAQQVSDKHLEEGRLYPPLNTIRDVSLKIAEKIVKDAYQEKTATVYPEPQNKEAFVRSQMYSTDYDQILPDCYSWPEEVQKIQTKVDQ
Procedure, shortened: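 Compounds at 10 μM preincubated 15 min in 50 mM Tris-HCl pH 7.5, 10 mM MnCl2, 2 mM L-malate, 10 μM resazurin, 0.01 mg/ml diaphorase, then human ME1 added for 5 min; reaction started with NADP+ and run 2 h at room temperature. Resorufin fluorescence (ex 540/em 600 nm) normalized to enzyme-only (100%) and no-enzyme (0%) controls.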

Sequence of human ME2 enzyme (P23368 19-584): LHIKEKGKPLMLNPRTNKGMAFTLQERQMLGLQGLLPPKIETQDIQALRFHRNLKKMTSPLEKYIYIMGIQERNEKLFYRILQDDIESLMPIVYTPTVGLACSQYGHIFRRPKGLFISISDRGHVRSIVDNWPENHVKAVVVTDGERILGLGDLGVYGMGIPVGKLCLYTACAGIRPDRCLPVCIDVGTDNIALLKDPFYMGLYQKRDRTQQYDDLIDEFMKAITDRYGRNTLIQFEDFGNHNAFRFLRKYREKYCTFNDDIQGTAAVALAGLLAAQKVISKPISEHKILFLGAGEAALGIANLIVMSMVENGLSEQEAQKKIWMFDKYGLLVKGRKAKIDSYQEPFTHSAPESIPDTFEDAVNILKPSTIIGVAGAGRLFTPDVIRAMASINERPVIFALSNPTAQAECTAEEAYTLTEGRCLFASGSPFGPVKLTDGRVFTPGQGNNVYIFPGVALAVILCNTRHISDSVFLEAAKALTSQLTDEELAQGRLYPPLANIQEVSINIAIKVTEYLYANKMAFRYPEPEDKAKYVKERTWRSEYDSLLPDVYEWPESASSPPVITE

| Compound | inhibition at 10 µM (human ME3 enzyme) [%] | inhibition at 10 µM (human ME2 enzyme) [%] | inhibition at 10 µM (human ME1 enzyme) [%] |
| --- | --- | --- | --- |
| CC(C)(C(=O)N1CCN(c2ccc(O)cn2)CC1)c1c[nH]c2ccc(F)cc12 [I.169, 2-(5-Fluoro-1H-indol-3-yl)-1-[4-(5-hydroxy-pyridin-2-yl)-piperazin-1-yl]-2-methyl-propan-1-one] | > 90 | > 90 | > 90 |
| Cc1[nH]c2ccc(F)cc2c1CC(=O)N1CCN(c2ccc(O)cn2)CC1 [I.166, 2-(5-Fluoro-2-methyl-1H-indol-3-yl)-1-[4-(5-hydroxy-pyridin-2-yl)-piperazin-1-yl]-ethanone] | > 90 | > 90 | > 90 |
| O=C(C=C1c2ccccc2-c2ccccc21)N1CCN(c2ccc(O)cn2)CC1 [I.60, 2-Fluoren-9-ylidene-1-[4-(5-hydroxy-2-pyridyl)-piperazin-1-yl]ethanone] | > 90 | 70 to 89 | 70 to 89 |
| O=C(C=C(c1ccccc1)c1ccccc1)N1CCN(c2ccc(O)cn2)CC1 [I.74, 1-[4-(5-Hydroxy-2-pyridyl)-piperazin-1-yl]-3,3-diphenyl-prop-2-en-1-one] | > 90 | 70 to 89 | > 90 |
| O=C(CNC12CC3CC(CC(C3)C1)C2)N1CCN(c2ccc(O)cn2)CC1 [I.83, 2-(1-Adamantyl-amino)-1-[4-(5-hydroxy-2-pyridyl)-piperazin-1-yl]ethanone] | > 90 | 50 to 69 | 50 to 69 |
| O=C(C(=O)N1CCN(c2ccc(O)cn2)CC1)c1c[nH]c2ccc(F)cc12 [I.168, 1-(5-Fluoro-1H-indol-3-yl)-2-[4-(5-hydroxy-pyridin-2-yl)-piperazin-1-yl]-ethane-1,2-dione] | > 90 | > 90 | > 90 |
| O=C(CCc1c[nH]c2ccccc12)N1CCN(c2ccc(O)cn2)CC1 [I.51, 1-[4-(5-Hydroxy-pyridin-2-yl)-piperazin-1-yl]-3-(1H-indol-3-yl)-propan-1-one] | > 90 | 70 to 89 | 70 to 89 |
| Cn1cc(C(=O)N2CCN(c3ccc(O)cn3)CC2)c(=O)c2ccccc21 [I.69, 3-[4-(5-Hydroxy-2-pyridyl)-piperazine-1-carbonyl]-1-methyl-quinolin-4-one] | > 90 | 70 to 89 | 70 to 89 |
| O=C([C@@H]1C[C@H]1c1ccccc1)N1CCN(c2ccc(O)cn2)CC1 (stereo in doubt) [I.133, [4-(5-hydroxypyridin-2-yl)-piperazin-1-yl]-((1R,2R)-2-phenylcyclopropyl)-methanone] | > 90 | > 90 | > 90 |
| O=C(Cc1c[nH]c2ccc(F)cc12)N1CCN(c2ccc(O)cc2)CC1 [I.150, 2-(5-fluoro-1H-indol-3-yl)-1-[4-(4-hydroxy-phenyl)-piperazin-1-yl]-ethanone] | > 90 | > 90 | > 90 |
| Cc1[nH]c2cc(Cl)c(Cl)cc2c1CC(=O)N1CCN(c2ccc(O)cn2)CC1 [I.176, 2-(5,6-Dichloro-2-methyl-1H-indol-3-yl)-1-[4-(5-hydroxy-pyridin-2-yl)-piperazin-1-yl]-ethanone] | > 90 | > 90 | > 90 |
| O=C(O)CCCC(=O)N1CCN(c2ccc(O)cn2)CC1 [I.70, 5-[4-(5-hydroxy-2-pyridyl)piperazin-1-yl]-5-oxo-pentanoic acid] | > 90 | 70 to 89 | 70 to 89 |
| O=C(CC=C(c1ccccc1)c1ccccc1)N1CCN(c2ccc(O)cn2)CC1 [I.94, 1-[4-(5-Hydroxy-2-pyridyl)-piperazin-1-yl]-4,4-diphenyl-but-3-en-1-one] | > 90 | 70 to 89 | 70 to 89 |

From patent US11225480B2, “Malic enzyme inhibitors” (SUN PHARMA ADVANCED RESEARCH COMPANY LTD, priority 2019, dated 2022)
